Measurements: patent publication US10188634B2, “3-(3H-imidazo[4,5-C]pyridin-2-yl)-1 H-pyrazolo[4,3-B]pyridines and therapeutic uses thereof” (Samumed, LLC, priority 2015, dated 2019)

Legend:
[1] = system: Wnt activity (Sp5-Luc reporter, human Sp5 promoter with eight TCF/LEF binding sites) in SW480 colon carcinoma cells; assay: Screening assay for Wnt activity: Sp5-Luc reporter gene assay in SW480 cells; type: cell-based; settings: for inhibition at 10 µM: read-out: percent inhibition at 10 μM (given for EC50 of >10 μM); for EC50: 10-point dose-response starting from 10 μM, overnight incubation
Source text: The screening assay for Wnt activity is described as follows. Reporter cell lines can be generated by stably transducing cancer cell lines (e.g., colon cancer) or primary cells (e.g., IEC-6 intestinal cells) with a lentiviral construct that includes a Wnt-responsive promoter driving expression of the firefly luciferase gene.
SW480 colon carcinoma cells were transduced with a lentiviral vector expressing luciferase with a human Sp5 promoter consisting of a sequence of eight TCF/LEF binding sites. SW480 cells stably expressing the Sp5-Luc reporter gene and a hygromycin resistance gene were selected by treatment with 150 μg/mL of hygromycin for 7 days. These stably transduced SW480 cells were expanded in cell culture and used for all further screening activities. Each compound was dissolved in DMSO as a 10 mM stock and used to prepare compound source plates. Serial dilution (1:3, 10-point dose-response curves starting from 10 μM) and compound transfer was performed using the ECHO 550 (Labcyte, Sunnyvale, Calif.) into 384-well white solid bottom assay plates (Greiner Bio-One) with appropriate DMSO backfill for a final DMSO concentration of 0.1%. For Sp5-Luc reporter gene assays, the cells were plated at 4,000 cells/well in 384-well plates with medium containing 1% fetal bovine serum and incubated overnight at 37° C. and 5% CO2. Following incubation, 20 μl of BrightGlo luminescence reagent (Promega) was added to each well of the 384-well assay plates. The plates were placed on an orbital shaker for 2 min and then luminescence was quantified using the Envision (Perkin Elmer) plate reader. Readings were normalized to DMSO only treated cells, and normalized activities were utilized for EC50 calculations using the dose-response log (inhibitor) vs. response -variable slope (four parameters) nonlinear regression feature available in GraphPad Prism 5.0 (or Dotmatics). For EC50 of >10 μM, the percent inhibition at 10 μM is provided.

SW480 colon cancer cells = assay: Cell viability assay (CellTiter-Blue) in SW480 colon cancer cells; type: cell-based; settings: Homo sapiens, 96 h; for inhibition at 10 µM: four days, CellTiter-Blue, read-out: percent inhibition at 10 μM (given for EC50 of >10 μM); for EC50: four days incubation, CellTiter-Blue cell viability
Protocol: Representative compounds were screened using the following assay procedure to assess the effect on cell viability as described below.
Each compound was dissolved in DMSO as a 10 mM stock and used to prepare compound source plates. Serial dilution (1:3, 8-point dose-response curves from 10 μM to 0.004 μM) and compound transfer was performed using the ECHO 550 (Labcyte, Sunnyvale, Calif.) into 96-well clear bottom, black-walled plates (Corning-Costar).
Approximately 2×10^3 SW480 colon cancer cells were seeded into each well and allowed to incubate in the presence or absence of compound for four days at 37° C./5% CO2. Eight replicates of DMSO-treated cells served as controls and cells treated with compound were performed in duplicate.
After incubation, 20 μL of CellTiter-Blue (Promega) was added to each well allowed to incubate for approximately 3 hours. This reagent was a buffered solution which contains resazurin, metabolically active cells were able to reduce rezarurin (blue) into resorufin (pink) which was highly fluorescent. This measured fluorescence was used as a readout for cell viability.
After incubation, the plates were read at Ex 560 nm Em 590 nm (Cytation 3, BioTek). Dose-response curves were generated and EC50 concentration values were calculated using non-linear regression curve fit in the GraphPad Prism (San Diego, Calif.) or Dotmatics' Studies Software (Bishops Stortford, UK). For EC50 of >10 μM, the percent inhibition at 10 μM is provided.

| EC50 [1] [µM] | EC50 (SW480 colon cancer cells) [µM] | SMILES | inhibition at 10 µM [1] [%] | inhibition at 10 µM (SW480 colon cancer cells) [%] |
| --- | --- | --- | --- | --- |
| > 10 | > 10 | CS(=O)(=O)NCc1cc(F)cc(-c2cncc3[nH]c(-c4n[nH]c5ccc(-c6cncc(NC(=O)c7ccccc7)c6)nc45)nc23)c1 [Compound 459, N-(5-(3-(7-(3-Fluoro-5-(methylsulfonamidomethyl)phenyl)-3H-imidazo[4,5-c]pyridin-2-yl)-1H-pyrazolo[4,3-b]pyridin-5-yl)pyridin-3-yl)benzamide] | 9.6 | 1.8 |
| > 10 | 8.9 | O=C(Nc1cncc(-c2ccc3[nH]nc(-c4nc5c(-c6ccccc6F)cncc5[nH]4)c3n2)c1)C1CCCC1 [Compound 78, N-(5-(3-(7-(2-Fluorophenyl)-3H-imidazo[4,5-c]pyridin-2-yl)-1H-pyrazolo[4,3-b]pyridin-5-yl)pyridin-3-yl)cyclopentanecarboxamide] | 6.6 |  |
| > 10 | > 10 | O=C(Nc1cncc(-c2ccc3[nH]nc(-c4nc5c(-c6ccsc6)cncc5[nH]4)c3n2)c1)c1ccccc1 [Compound 263, N-(5-(3-(7-(Thiophen-3-yl)-3H-imidazo[4,5-c]pyridin-2-yl)-1H-pyrazolo[4,3-b]pyridin-5-yl)pyridin-3-yl)benzamide] | 7.6 | 0.3 |
| > 10 | > 10 | COc1cccc(-c2cncc3[nH]c(-c4n[nH]c5ccc(-c6cn[nH]c6)nc45)nc23)c1 [Compound 975, 3-(7-(3-Methoxylphenyl)-3H-imidazo[4,5-c]pyridin-2-yl)-5-(1H-pyrazol-4-yl)-1H-pyrazolo[4,3-b]pyridine] | 2 | 4.1 |
| > 10 | > 10 | c1cncc(-c2cncc3[nH]c(-c4n[nH]c5ccc(-c6cncc(OC7CCCCC7)c6)nc45)nc23)c1 [Compound 531, 5-(5-(Cyclohexyloxy)pyridin-3-yl)-3-(7-(pyridin-3-yl)-3H-imidazo[4,5-c]pyridin-2-yl)-1H-pyrazolo[4,3-b]pyridine] | 24.3 | 15.5 |
| > 10 | > 10 | CC(C)(C)CC(=O)Nc1cncc(-c2ccc3[nH]nc(-c4nc5c(-c6ccccc6F)cncc5[nH]4)c3n2)c1 [Compound 72, N-(5-(3-(7-(2-fluorophenyl)-3H-imidazo[4,5-c]pyridin-2-yl)-1H-pyrazolo[4,3-b]pyridin-5-yl)pyridin-3-yl)-3,3-dimethylbutanamide] | 5.7 | 9.8 |
| > 10 | > 10 | Cn1cc(-c2ccc3[nH]nc(-c4nc5c(-c6ccc(F)cc6)cncc5[nH]4)c3n2)c(CO)n1 [Compound 1084, (4-(3-(7-(4-Fluorophenyl)-3H-imidazo[4,5-c]pyridin-2-yl)-1H-pyrazolo[4,3-b]pyridin-5-yl)-1-methyl-1H-pyrazol-3-yl)methanol] | 11.8 | 5.7 |
| > 10 | > 10 | c1cc(-c2cncc3[nH]c(-c4n[nH]c5ccc(-c6cnccn6)nc45)nc23)ccn1 [Compound 556, 5-(Pyrazin-2-yl)-3-(7-(pyridin-4-yl)-3H-imidazo[4,5-c]pyridin-2-yl)-1H-pyrazolo[4,3-b]pyridine] | 9.5 | 13.7 |
| > 10 | > 10 | CN1CCN(c2cncc3[nH]c(-c4n[nH]c5ccc(-c6cncnc6)nc45)nc23)CC1 [Compound 251, 3-(7-(4-Methylpiperazin-1-yl)-3H-imidazo[4,5-c]pyridin-2-yl)-5-(pyrimidin-5-yl)-1H-pyrazolo[4,3-b]pyridine] | 14.4 | 0 |
| > 10 | > 10 | COc1cccc(-c2cncc3[nH]c(-c4n[nH]c5ccc(-c6cncc(O)c6)nc45)nc23)c1 [Compound 985, 5-(3-(7-(3-Methoxylphenyl)-3H-imidazo[4,5-c]pyridin-2-yl)-1H-pyrazolo[4,3-b]pyridin-5-yl)pyridin-3-ol] | 7.8 | 7.1 |
| > 10 | > 10 | c1csc(-c2cncc3[nH]c(-c4n[nH]c5ccc(-c6ccncc6)nc45)nc23)c1 [Compound 326, 5-(Pyridin-4-yl)-3-(7-(thiophen-2-yl)-3H-imidazo[4,5-c]pyridin-2-yl)-1H-pyrazolo[4,3-b]pyridine] | 12.7 | 0 |
| > 10 | > 10 | O=C(Nc1cncc(-c2ccc3[nH]nc(-c4nc5c(-c6cccs6)cncc5[nH]4)c3n2)c1)C1CC1 [Compound 328, N-(5-(3-(7-(Thiophen-2-yl)-3H-imidazo[4,5-c]pyridin-2-yl)-1H-pyrazolo[4,3-b]pyridin-5-yl)pyridin-3-yl)cyclopropanecarboxamide] | 3.7 | 10 |
| > 10 | > 10 | c1cc(-c2cncc3[nH]c(-c4n[nH]c5ccc(-c6cncc(OC7CCNCC7)c6)nc45)nc23)ccn1 [Compound 548, 5-(5-(Piperidin-4-yloxy)pyridin-3-yl)-3-(7-(pyridin-4-yl)-3H-imidazo[4,5-c]pyridin-2-yl)-1H-pyrazolo[4,3-b]pyridine] | 16.1 | 10.3 |
| > 10 | > 10 | O=C(Nc1cncc(-c2ccc3[nH]nc(-c4nc5c(-c6ccncc6)cncc5[nH]4)c3n2)c1)C1CCCCC1 [Compound 135, N-(5-(3-(7-(pyridin-4-yl)-3H-imidazo[4,5-c]pyridin-2-yl)-1H-pyrazolo[4,3-b]pyridin-5-yl)pyridin-3-yl)cyclohexanecarboxamide] | 1.2 | 1.4 |
| > 10 | > 10 | COc1cccc(-c2cncc3[nH]c(-c4n[nH]c5ccc(-c6cncc(NC(=O)CC(C)(C)C)c6)nc45)nc23)c1 [Compound 961, N-(5-(3-(7-(3-methoxylphenyl)-3H-imidazo[4,5-c]pyridin-2-yl)-1H-pyrazolo[4,3-b]pyridin-5-yl)pyridin-3-yl)-3,3-dimethylbutanamide] | 0 | 0.4 |
| > 10 | > 10 | Cc1ccc(-c2cncc3[nH]c(-c4n[nH]c5ccc(-c6cncc(NC(=O)C7CCCC7)c6)nc45)nc23)s1 [Compound 386, N-(5-(3-(7-(5-Methylthiophen-2-yl)-3H-imidazo[4,5-c]pyridin-2-yl)-1H-pyrazolo[4,3-b]pyridin-5-yl)pyridin-3-yl)cyclopentanecarboxamide] | 8.7 | 0.9 |
| > 10 | > 10 | Cn1cc(-c2ccc3[nH]nc(-c4nc5c(-c6cc(F)cc(CNS(C)(=O)=O)c6)cncc5[nH]4)c3n2)cn1 [Compound 720, N-(3-Fluoro-5-(2-(5-(1-methyl-1H-pyrazol-4-yl)-1H-pyrazolo[4,3-b]pyridin-3-yl)-3H-imidazo[4,5-c]pyridin-7-yl)benzyl)methanesulfonamide] | 16.4 | 0 |

| SMILES | EC50 [1] [µM] | EC50 (SW480 colon cancer cells) [µM] | inhibition at 10 µM [1] [%] | inhibition at 10 µM (SW480 colon cancer cells) [%] |
| --- | --- | --- | --- | --- |
| C1=C(c2ccc3[nH]nc(-c4nc5c(-c6ccc7c(c6)OCO7)cncc5[nH]4)c3n2)CCNC1 [Compound 1064, 3-(7-(Benzo[d][1,3]dioxol-5-yl)-3H-imidazo[4,5-c]pyridin-2-yl)-5-(1,2,3,6-tetrahydropyridin-4-yl)-1H-pyrazolo[4,3-b]pyridine] | > 10 | > 10 | 9.5 | 0.1 |
| Cc1ccc(-c2cncc3[nH]c(-c4n[nH]c5ccc(C6=CCNCC6)nc45)nc23)s1 [Compound 686, 3-(7-(5-Methylthiophen-2-yl)-3H-imidazo[4,5-c]pyridin-2-yl)-5-(1,2,3,6-tetrahydropyridin-4-yl)-1H-pyrazolo[4,3-b]pyridine] | > 10 | 6.11 | 52.6 |  |
